Reference: patent US11999697B2, “Methods and compositions for inhibition of dihydroorotate dehydrogenase” (OHIO STATE INNOVATION FOUNDATION, priority 2018, dated 2024)
Like-named read-outs stand apart in the source and are kept apart here.

How the values were obtained:
[1] = molecular target: T1, DHODH (Homo sapiens, UniProt Q02127); assay: DHODH enzymatic assay (DCIP reduction); format: biochemical
T1 construct: made in house
Experimental: DHODH Enzymatic Assay: DHODH activity was determined at 25° C. following the reduction of 2,6-dichloroindophenol sodium salt (DCIP) at 600 nm (ε=18 800 M^−1 cm^−1) on a spectrophotometer. The reaction medium used contained 50 mM Tris-HCl, pH 8.0, 0.1% Triton X-100, 0.1 mM LDHO, 0.025 mM CoQ1, and 0.06 mM DCIP. The reaction was started by addition of the enzyme. The inhibitory potency of the compounds was evaluated by measuring the initial velocity of the reaction either in the absence or in the presence of the compounds at the indicated concentrations. The DHODH enzyme used was the recombinant human enzyme prepared as previously described (Helene Munier-Lehmann, et al., J. Med. Chem. 2015, 58:860-877).

[2] = system: MV4-11; assay: MTS cell proliferation assay, MV4-11; format: cell-based; conditions: for IC50: Homo sapiens, MV4-11, MTS
[3] = system: OCI-AML3; assay: MTS cell proliferation assay, OCI-AML3; format: cell-based; conditions: Homo sapiens
Experimental: Triplicate wells were set up for each condition.
The assays were carried out in a blinded fashion.

[4] = system: primary human AML cells; assay: Colony formation (CFU) assay in methocult media; format: cell-based; conditions: 1 μM, 14 days
Experimental: Colony formation (CFU) assays in methocult media: CFU assays can detect an increase or decrease in the frequency of the hematopoietic progenitor proliferation and/or changes in differentiation potential in response to stimulatory, inhibitory or toxic agents. For CFU assays with primary AML cells, cells were cultured overnight in media containing IL-3, GM-CSF, SCF, and FLT3L cytokines at 20 ng/ml. 10-25K primary cells were suspended in MethoCult™ Optimum without EPO which is supplemented with SCF, IL-3, G-CSF, GM-CSF along with vehicle, 1 μM Cpd3 or 1 μM brequinar. After 14 days the total number of colonies was counted and the cells were solubilized from the methocult for cytospin assays described below. […] FIGS. 3A-3B show representative data for colony formation for primary human AML cells in the presence of a representative disclosed compound, Cpd3, compared to a reference compound, brequinar, or vehicle treatment using methods as described herein below. Briefly, primary AML cells were treated with vehicle (DMSO), Cpd3 (1 μM) or brequinar sodium (BQR, 1 μM) and plated in methocult media for 14 days. Results are plotted as the total number of colonies per each condition. Lines connecting data from the same patient sample are shown in order to indicate the trend within a particular sample.

[5] = system: NK cell function (MV4-11 targets, normal donor NK cells); assay: Antibody dependent cellular cytotoxicity (ADCC) assay by 51Cr release; format: cell-based, human; conditions: 1 μM, 4 hours 51Cr release
Experimental: Antibody Dependent Cellular Cytotoxicity (ADCC) Assay by ^51Cr Release: Assessment of NK-cell killing activity was performed using standard 4 hour ^51Cr release (CR) assay. Donor NK cells (effector cells) were isolated from the peripheral blood of normal donors (N=2). MV4-11 cells (target cells) were labeled with radioactive ^51Cr for 1 h at 37° C., washed, and plated in 96 well V-bottom plates at a density of 1×10^4 cells/well. Vehicle or 1 μM Cpd3 was added to either the NKs cells, the MV4-11 cells, or both prior to co-culturing. The ^51Cr labeled MV4-11 cells and NK cells were then co-cultured 25:1 or 12:1 effector to target (E:T) ratio in the presence of antibodies targeting the CD33 surface receptor (B133; B1836858), non-targeting isotype control (B147; B1836847), each at […], or no antibody control. Supernatants were collected after 4 h of co-culture and counted on a Perkin Elmer (Waltham, Mass.) Wizard γ-counter. The percentage of specific cell lysis was determined by: % lysis=100×(ER-SR)/(MR-SR). ER, SR, and MR represent experimental, spontaneous and maximum release. Data were normalized to the untreated control.
Briefly, a chromium (Cr^51) release antibody dependent cellular toxicity assay was carried out with MV4-11 cells (targets) and normal donor NK cells (effectors; N=2). […] Cr^51 release was measured following 4 hours of incubation to determine relative toxicity.

[6] = system: IDH2-R140Q/Flt3-ITD spleen cells (murine AML); assay: IDH2-R140Q/Flt3-ITD adoptive transfer model; format: in vivo, NCG mice
Source text: Leukemic cells derived from a spontaneous murine model of Idh2/Flt3 AML, as reported by Shih et al (Cancer Discov. 7(5):494-505), were engrafted via adoptive transfer to generate an aggressive model of AML suitable for testing of therapeutic agents. Briefly, 6-8 week old mice harboring a heterozygous internal tandem duplication of FMS-like tyrosine kinase 3 (Flt3-ITD), a heterozygous point mutation of isocitrate dehydrogenase 2 (Idh2-R140Q) preceeded by a loxP flanked STOP codon, and Cre recombinase under the MX dynamin like GTPase 1 (Mx1) promoter were injected i.p. with polyinosinic:polycytidylic acid (poly(I:C)), activating Cre recombinase and inducing hematopoietic-specific expression of the Idh2-R140Q mutation. Spleen cells from these mice were collected after the development of lethal AML (defined by study removal criteria), typically 8-14 months post-poly(I:C) injection. 1×10^5 spleen cells from a single leukemic donor were engrafted by tail vein injection into 6 week old immune deficient NOD-Prkdc^em26Cd52//2rg^em26Cd22/NjuCrl mice (NCG; Charles River). At one week post-engraftment, animals were randomized to vehicle (5% EtOH, 10% Kolliphor EL, in PBS), enasidenib (100 mg/kg), and HOSU-3 (50 mg/kg) treatment arms and dosed by daily oral gavage. Personnel responsible for animal monitoring, dosing, and decisions regarding euthanasia were blinded to treatment arms. Survival was assessed using Kaplan-Meier analysis and p-values were determined using the log-rank test and adjusted using Holm's method.

T1 sequence (Q02127 whole entry): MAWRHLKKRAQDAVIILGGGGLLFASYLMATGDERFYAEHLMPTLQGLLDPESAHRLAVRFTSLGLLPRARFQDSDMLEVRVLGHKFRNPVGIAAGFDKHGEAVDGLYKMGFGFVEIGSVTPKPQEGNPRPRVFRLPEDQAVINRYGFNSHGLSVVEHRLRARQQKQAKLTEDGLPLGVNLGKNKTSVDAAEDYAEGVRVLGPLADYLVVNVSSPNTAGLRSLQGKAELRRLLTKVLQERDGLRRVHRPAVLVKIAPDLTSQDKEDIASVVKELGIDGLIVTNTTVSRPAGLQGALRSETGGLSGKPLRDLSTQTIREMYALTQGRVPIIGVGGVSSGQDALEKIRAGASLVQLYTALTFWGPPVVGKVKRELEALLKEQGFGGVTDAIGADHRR

SMILES: CCOc1ccc(-c2ccc(-c3cc(C(=O)O)c4cc(F)ccc4n3)cc2)cc1 [Cpd3, 2-(4′-ethoxy-[1,1′-biphenyl]-4-yl)-6-fluoroquinoline-4-carboxylic acid]
- DHODH inhibition, % inhibition ([1]; compound concentration not given): 97%
- IC50 ([1]; range in parentheses, read-out: DHODH inhibition, IC50): 43 nM
- rescue of cytotoxic effects by uridine ([2]; 0.25 or 0.5 μM compound, uridine 0 to 200 μM, 96 hours): rescued by growth in the presence of uridine
- IC50 ([2]; 96 hour, Table 7, read-out: 96 hour IC50 (nM) in MV-411 cell line): ~500 nM
- IC50 ([2]; 96 hours, read-out: IC50 (μM) at 96 hours, MV4-11): 670 nM
- IC50 ([3]; OCI-AML-3, 96 hour, Table 6, read-out: 96 hour IC50 (nM) in OCI-AML-3 cell line): 321 nM
- IC50 ([3]; OCI-AML-3, 96 hours, read-out: IC50 (μM) at 96 hours, OCI-AML3): 610 nM
- growth in methocult colony forming unit (CFU) assays [4]: decreased growth
- NK cell function [5]: does not impact NK cell function
- survival compared to vehicle and enasidinib treatment groups ([6]; 50 mg/kg once daily): significant improvement in survival
- Median survival ([6]; daily oral gavage, Cpd3 50 mg/kg, enasidenib 100 mg/kg): 42 days
